Measurements as given in PubChem BioAssay (NCI).
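Grown in 96-well plates, cells were treated for 48 hours with each compound at five concentrations. Insufficient inhibition: endpoint recorded as highest concentration tested. GI50: concentration for 50% inhibition of growth. At the TGI there is no net growth.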 Where a SMILES comes first, the peptide text is derived from it. [ ]: non-standard residue; d: D form. The star is where a group is joined. ξ: configuration not given here. Decanoyl(3R-OH) = CCCCCCC[C@@H](O)CC(=O)*; ξK = NCCCCC(N)C(=O)O; ξP = O=C(O)C1CCCN1

Experiments:
Experiment in all cases: NCI-60 cell line screen, 48 h
HL-60(TB) leukemia = tested on: HL-60(TB) leukemia
OVCAR-8 ovarian = tested on: OVCAR-8 ovarian
DU-145 prostate = tested on: DU-145 prostate
ACHN renal = tested on: ACHN renal
K-562 leukemia = tested on: K-562 leukemia
RXF 393 renal = tested on: RXF 393 renal
KM12 colon = tested on: KM12 colon
NCI-H522 lung = tested on: NCI-H522 lung
SF-539 CNS = tested on: SF-539 CNS
HCT-15 colon = tested on: HCT-15 colon
MDA-MB-435 = tested on: MDA-MB-435
CAKI-1 renal = tested on: CAKI-1 renal
HCT-116 colon = tested on: HCT-116 colon
OVCAR-4 ovarian = tested on: OVCAR-4 ovarian
MOLT-4 leukemia = tested on: MOLT-4 leukemia
TK-10 renal = tested on: TK-10 renal
HS 578T breast = tested on: HS 578T breast
786-0 renal = tested on: 786-0 renal
SK-MEL-28 melanoma = tested on: SK-MEL-28 melanoma
RPMI-8226 leukemia = tested on: RPMI-8226 leukemia
SK-MEL-5 melanoma = tested on: SK-MEL-5 melanoma
SK-OV-3 ovarian = tested on: SK-OV-3 ovarian
SK-MEL-2 melanoma = tested on: SK-MEL-2 melanoma
MDA-MB-231 breast = tested on: MDA-MB-231 breast
EKVX NSCLC = tested on: EKVX NSCLC
SNB-75 CNS = tested on: SNB-75 CNS
SN12C renal = tested on: SN12C renal
IGROV1 ovarian = tested on: IGROV1 ovarian
HT29 colon = tested on: HT29 colon
NCI-H226 lung = tested on: NCI-H226 lung
NCI-H23 lung = tested on: NCI-H23 lung
OVCAR-3 ovarian = tested on: OVCAR-3 ovarian
SF-268 CNS = tested on: SF-268 CNS
MCF7 breast = tested on: MCF7 breast
CCRF-CEM leukemia = tested on: CCRF-CEM leukemia
UO-31 renal = tested on: UO-31 renal
SR leukemia = tested on: SR leukemia
MALME-3M melanoma = tested on: MALME-3M melanoma
COLO 205 colon = tested on: COLO 205 colon
A498 renal = tested on: A498 renal
UACC-257 melanoma = tested on: UACC-257 melanoma
A549 NSCLC = tested on: A549 NSCLC
BT-549 breast = tested on: BT-549 breast
LOX IMVI melanoma = tested on: LOX IMVI melanoma
OVCAR-5 ovarian = tested on: OVCAR-5 ovarian
NCI-H460 lung = tested on: NCI-H460 lung
HOP-92 NSCLC = tested on: HOP-92 NSCLC
M14 melanoma = tested on: M14 melanoma
NCI/ADR-RES ovarian = tested on: NCI/ADR-RES ovarian
HCC-2998 colon = tested on: HCC-2998 colon
HOP-62 NSCLC = tested on: HOP-62 NSCLC
SW-620 colon = tested on: SW-620 colon
T-47D breast = tested on: T-47D breast
PC-3 prostate = tested on: PC-3 prostate
UACC-62 melanoma = tested on: UACC-62 melanoma
U251 CNS = tested on: U251 CNS
SF-295 CNS = tested on: SF-295 CNS
SNB-19 CNS = tested on: SNB-19 CNS

`CCCCCCC[C@@H](O)CC(=O)N[C@H](CCCCN)C(=O)N[C@H](Cc1c[nH]c2ccccc12)C(=O)NC(CCCCN)C(=O)N[C@H](CC(C)C)C(=O)N[C@H](Cc1ccccc1)C(=O)N[C@H](CCCCN)C(=O)N[C@H](CCCCN)C(=O)N[C@H](CC(C)C)C(=O)N1CCCC1C(=O)N[C@H](CCCCN)C(=O)N[C@H](Cc1ccccc1)C(=O)N[C@H](CC(C)C)C(=O)N[C@H](Cc1c[nH]cn1)C(=O)N[C@H](CC(C)C)C(=O)N[C@H](C)C(=O)N[C@H](CCCCN)C(=O)N[C@H](CCCCN)C(=O)N[C@H](Cc1ccccc1)C(=O)O` (stereo partly drawn) ({Decanoyl(3R-OH)}-[dK][dW][ξK][dL][dF][dK][dK][dL][ξP][dK][dF][dL][dH][dL][dA][dK][dK][dF]-OH) gave a GI50 (HL-60(TB) leukemia) of 0.743 µM, a TGI (HL-60(TB) leukemia) of 1.71 µM and a GI50 (OVCAR-8 ovarian) of 0.814 µM. For the same compound, the TGI (OVCAR-8 ovarian) was 33.3 µM, the GI50 (DU-145 prostate) was 0.607 µM and the TGI (DU-145 prostate) was 1.12 µM.
Compound `Cc1ccc(/C=C(\C#N)n2nnc3cc(Cl)c(Cl)cc32)cc1` has a GI50 (ACHN renal) of 1.8 µM, a TGI (ACHN renal) of 3.63 µM and a GI50 (K-562 leukemia) of 0.892 µM. For the same compound, the TGI (K-562 leukemia) was 33.2 µM, the GI50 (RXF 393 renal) was 2.01 µM and the TGI (RXF 393 renal) was 5.69 µM. The GI50 (KM12 colon) was 3.03 µM, the TGI (KM12 colon) was over 100 µM and the GI50 (HL-60(TB) leukemia) was 1.78 µM. For the same compound, the TGI (HL-60(TB) leukemia) was 6.94 µM, the GI50 (NCI-H522 lung) was 2.72 µM and the TGI (NCI-H522 lung) was 14.9 µM. The GI50 (SF-539 CNS) was 2.53 µM, the TGI (SF-539 CNS) was 6.6 µM and the GI50 (HCT-15 colon) was 1.73 µM. The TGI (HCT-15 colon) was 5.99 µM, the GI50 (MDA-MB-435) was 0.909 µM and the TGI (MDA-MB-435) was 6.8 µM. It also gave a GI50 (CAKI-1 renal) of 1.09 µM, a TGI (CAKI-1 renal) of 13.8 µM and a GI50 (HCT-116 colon) of 1.54 µM. The TGI (HCT-116 colon) was 3 µM, the GI50 (OVCAR-8 ovarian) was 2.87 µM and the TGI (OVCAR-8 ovarian) was over 100 µM. For the same compound, the GI50 (OVCAR-4 ovarian) was 2.69 µM, the TGI (OVCAR-4 ovarian) was 81.5 µM and the GI50 (MOLT-4 leukemia) was 2.73 µM. It also gave a TGI (MOLT-4 leukemia) of over 100 µM, a GI50 (TK-10 renal) of 4.4 µM and a TGI (TK-10 renal) of 36.4 µM. The GI50 (HS 578T breast) was 2.83 µM, the TGI (HS 578T breast) was over 100 µM and the GI50 (786-0 renal) was 2.46 µM. For the same compound, the TGI (786-0 renal) was 6 µM, the GI50 (SK-MEL-28 melanoma) was 2.05 µM and the TGI (SK-MEL-28 melanoma) was 4.77 µM. It also gave a GI50 (RPMI-8226 leukemia) of 1.7 µM, a TGI (RPMI-8226 leukemia) of 4.91 µM and a GI50 (SK-MEL-5 melanoma) of 2.44 µM. The TGI (SK-MEL-5 melanoma) was 6.55 µM, the GI50 (SK-OV-3 ovarian) was 3.69 µM and the TGI (SK-OV-3 ovarian) was 91.5 µM. The GI50 (SK-MEL-2 melanoma) was 3.96 µM, the TGI (SK-MEL-2 melanoma) was over 100 µM and the GI50 (MDA-MB-231 breast) was 2.7 µM. For the same compound, the TGI (MDA-MB-231 breast) was 17.2 µM, the GI50 (EKVX NSCLC) was 3.48 µM and the TGI (EKVX NSCLC) was over 100 µM. It also gave a GI50 (SNB-75 CNS) of 1.57 µM, a TGI (SNB-75 CNS) of 9.74 µM and a GI50 (SN12C renal) of 3.13 µM. The TGI (SN12C renal) was 13.1 µM, the GI50 (IGROV1 ovarian) was 2.26 µM and the TGI (IGROV1 ovarian) was 6.48 µM. For the same compound, the GI50 (HT29 colon) was 2.59 µM, the TGI (HT29 colon) was 13.6 µM and the GI50 (NCI-H226 lung) was 2.88 µM. For the same compound, the TGI (NCI-H226 lung) was over 100 µM, the GI50 (NCI-H23 lung) was 3.36 µM and the TGI (NCI-H23 lung) was over 100 µM. The GI50 (OVCAR-3 ovarian) was 2.93 µM, the TGI (OVCAR-3 ovarian) was 12.8 µM and the GI50 (SF-268 CNS) was 3.66 µM. The TGI (SF-268 CNS) was over 100 µM, the GI50 (MCF7 breast) was 1.88 µM and the TGI (MCF7 breast) was over 100 µM. For the same compound, the GI50 (CCRF-CEM leukemia) was 1.32 µM, the TGI (CCRF-CEM leukemia) was over 100 µM and the GI50 (UO-31 renal) was 1.59 µM. The TGI (UO-31 renal) was 3.35 µM, the GI50 (SR leukemia) was 0.417 µM and the TGI (SR leukemia) was 40.6 µM. The GI50 (MALME-3M melanoma) was 2.18 µM, the TGI (MALME-3M melanoma) was 6.21 µM and the GI50 (COLO 205 colon) was 2.62 µM. It also gave a TGI (COLO 205 colon) of 7.16 µM, a GI50 (A498 renal) of 1.91 µM and a TGI (A498 renal) of 4.59 µM. It also gave a GI50 (DU-145 prostate) of 3.27 µM, a TGI (DU-145 prostate) of over 100 µM and a GI50 (UACC-257 melanoma) of 2.95 µM. For the same compound, the TGI (UACC-257 melanoma) was over 100 µM, the GI50 (A549 NSCLC) was 3.58 µM and the TGI (A549 NSCLC) was over 100 µM. For the same compound, the GI50 (BT-549 breast) was 1.81 µM, the TGI (BT-549 breast) was 4.59 µM and the GI50 (LOX IMVI melanoma) was 1.81 µM. It also gave a TGI (LOX IMVI melanoma) of 3.65 µM, a GI50 (OVCAR-5 ovarian) of 3.25 µM and a TGI (OVCAR-5 ovarian) of 9.43 µM. The GI50 (NCI-H460 lung) was 2.43 µM, the TGI (NCI-H460 lung) was 6.52 µM and the GI50 (HOP-92 NSCLC) was 1.61 µM. The TGI (HOP-92 NSCLC) was 9.65 µM, the GI50 (M14 melanoma) was 2.18 µM and the TGI (M14 melanoma) was 5.66 µM. It also gave a GI50 (NCI/ADR-RES ovarian) of 2.22 µM, a TGI (NCI/ADR-RES ovarian) of 7.61 µM and a GI50 (HCC-2998 colon) of 1.9 µM. It also gave a TGI (HCC-2998 colon) of 4.12 µM, a GI50 (HOP-62 NSCLC) of 2.6 µM and a TGI (HOP-62 NSCLC) of over 100 µM.
Work on `CC1=NN(c2nc(N)nc(CS(C)(=O)=O)n2)C(C)(C)C1` yielded a TGI (ACHN renal) of over 100 µM, a TGI (K-562 leukemia) of over 100 µM and a TGI (RXF 393 renal) of over 100 µM. For the same compound, the TGI (KM12 colon) was over 100 µM, the TGI (HL-60(TB) leukemia) was over 100 µM and the TGI (SF-539 CNS) was over 100 µM. It also gave a TGI (HCT-15 colon) of over 100 µM, a TGI (MDA-MB-435) of over 100 µM and a TGI (CAKI-1 renal) of over 100 µM. The TGI (SW-620 colon) was over 100 µM, the TGI (HCT-116 colon) was over 100 µM and the TGI (OVCAR-8 ovarian) was over 100 µM. The TGI (OVCAR-4 ovarian) was over 100 µM, the TGI (MOLT-4 leukemia) was over 100 µM and the TGI (T-47D breast) was over 100 µM. The TGI (TK-10 renal) was over 100 µM, the TGI (HS 578T breast) was over 100 µM and the TGI (786-0 renal) was over 100 µM. The TGI (PC-3 prostate) was over 100 µM, the TGI (SK-MEL-28 melanoma) was over 100 µM and the TGI (RPMI-8226 leukemia) was over 100 µM. It also gave a TGI (SK-MEL-5 melanoma) of over 100 µM, a TGI (SK-OV-3 ovarian) of over 100 µM and a TGI (SK-MEL-2 melanoma) of over 100 µM. The TGI (MDA-MB-231 breast) was over 100 µM, the TGI (EKVX NSCLC) was over 100 µM and the TGI (SNB-75 CNS) was over 100 µM. For the same compound, the TGI (UACC-62 melanoma) was over 100 µM, the TGI (IGROV1 ovarian) was over 100 µM and the TGI (HT29 colon) was over 100 µM. The TGI (NCI-H23 lung) was over 100 µM, the TGI (SF-268 CNS) was over 100 µM and the TGI (MCF7 breast) was over 100 µM. The TGI (CCRF-CEM leukemia) was over 100 µM, the TGI (UO-31 renal) was over 100 µM and the TGI (SR leukemia) was over 100 µM. The TGI (COLO 205 colon) was over 100 µM, the TGI (U251 CNS) was over 100 µM and the TGI (SF-295 CNS) was over 100 µM. For the same compound, the TGI (A498 renal) was over 100 µM, the TGI (DU-145 prostate) was over 100 µM and the TGI (UACC-257 melanoma) was over 100 µM. The TGI (BT-549 breast) was over 100 µM, the TGI (LOX IMVI melanoma) was over 100 µM and the TGI (NCI-H460 lung) was over 100 µM. For the same compound, the TGI (SNB-19 CNS) was over 100 µM, the TGI (HOP-92 NSCLC) was over 100 µM and the TGI (M14 melanoma) was over 100 µM. It also gave a TGI (NCI/ADR-RES ovarian) of over 100 µM, a TGI (HCC-2998 colon) of over 100 µM and a TGI (HOP-62 NSCLC) of over 100 µM.
